Molecular target: T1, human ghrelin receptor (Homo sapiens, UniProt Q92847)
T1 construct: expressed in transfected cells
Assay: Ghrelin receptor agonistic activity induced Ca2+ influx in HEK293 cells stably expressing human ghrelin receptor
Format: cell-based
Details: Ca2+ influx (Fluo-4, FDSS6000), 11-point dose-response
Protocol: Measurement of the Ghrelin Receptor Agonistic Activity Induced Ca^2+ Influx in HEK293 Cells Stably Expressing Human Ghrelin Receptor
HEK293 cells stably expressing human ghrelin receptor were maintained in Dulbecco's modified Eagle medium (high glucose) supplemented with 10% fetal bovine serum, 100 units/ml penicillin, 100 microg/ml streptomycin and 500 microg/ml G418 at 37° C. in a humidified incubator with 5% CO2 and grown to 60-80% confluence. The day before the assay, the cells were seeded on poly-D-lysine coated 384-well plates (BD FALCON) at a density of 10,000 cells per well, and incubated overnight in incubator.
On the day of the assay, the cells were washed three times with assay buffer (Hanks' balanced salt solution with 20 mM HEPES, pH7.4), and were incubated for 1 hour at room temperature to load 0.5 microM Fluo-4 AM reagent (Invitrogen).
After removing Fluo-4, and washing with assay buffer, the cells were added with various concentrations of the compounds. The changes in intracellular calcium concentration were monitored with the fluorescence imaging plate reader, FDSS6000 (Hamamatsu Photonics).
The EC50 values for compounds of the present invention were determined from 11-point dose-response studies. Curves were generated using the average of duplicate wells for each data point. Finally, the EC50 values were calculated using the best-fit dose curve determined by XLfit (ID Business Solutions Ltd).

T1 sequence (Q92847 whole entry): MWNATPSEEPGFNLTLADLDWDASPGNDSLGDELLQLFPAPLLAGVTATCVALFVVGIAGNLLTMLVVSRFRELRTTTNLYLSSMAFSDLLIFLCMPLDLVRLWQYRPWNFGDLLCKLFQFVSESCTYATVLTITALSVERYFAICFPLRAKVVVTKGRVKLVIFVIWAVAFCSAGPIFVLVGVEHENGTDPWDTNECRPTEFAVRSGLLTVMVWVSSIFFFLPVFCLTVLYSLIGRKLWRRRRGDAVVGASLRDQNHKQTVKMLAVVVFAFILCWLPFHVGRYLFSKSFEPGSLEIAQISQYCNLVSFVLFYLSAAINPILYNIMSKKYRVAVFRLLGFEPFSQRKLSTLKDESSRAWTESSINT

EC50, < 10 nM:
CN1N=C2CCN(C(=O)[C@@H](COc3ccc(C#N)cc3)NC(=O)C(C)(C)N)C[C@@]2(Cc2ccccc2)C1=O [Example 20, 2-amino-N—((R)-1-((R)-3a-benzyl-2-methyl-3-oxo-3a,4,6,7-tetrahydro-2H-pyrazolo[4,3-c]pyridin-5(3H)-yl)-3-(4-cyanophenoxy)-1-oxopropan-2-yl)-2-methylpropanamide]
CN1N=C2CCN(C(=O)[C@@H](COc3ccccn3)NC(=O)C(C)(C)N)C[C@@]2(Cc2ccccc2)C1=O [Example 17, 2-amino-N—((R)-1-((R)-3a-benzyl-2-methyl-3-oxo-3a,4,6,7-tetrahydro-2H-pyrazolo[4,3-c]pyridin-5(3H)-yl)-1-oxo-3-(pyridin-2-yloxy)propan-2-yl)-2-methylpropanamide]
CN1N=C2CCN(C(=O)[C@@H](COc3cc(C(F)(F)F)cc(C(F)(F)F)c3)NC(=O)C(C)(C)N)C[C@@]2(Cc2ccccc2)C1=O [Example 9, 2-amino-N—((R)-1-((R)-3a-benzyl-2-methyl-3-oxo-3a,4,6,7-tetrahydro-2H-pyrazolo[4,3-c]pyridin-5(3H)-yl)-3-(3,5-bis(trifluoromethyl)phenoxy)-1-oxopropan-2-yl)-2-methylpropanamide]
CN1N=C2CCN(C(=O)[C@@H](COc3cncc(F)c3)NC(=O)C(C)(C)N)C[C@@]2(Cc2ccccc2)C1=O [Example 18, 2-amino-N—((R)-1-((R)-3a-benzyl-2-methyl-3-oxo-3a,4,6,7-tetrahydro-2H-pyrazolo[4,3-c]pyridin-5(3H)-yl)-3-((5-fluoropyridin-3-yl)oxy)-1-oxopropan-2-yl)-2-methylpropanamide]

— patent US9873695B2, “Serine derivatives as ghrelin receptor agonists” (RaQualia Pharma Inc., priority 2014, dated 2018)
